Assays:
[1] = molecular target: T1, Nitric oxide synthase, inducible (Homo sapiens, UniProt P35228); assay: Binding affinity to iNOS with heme domain construct assessed as spectral binding constant by spectral assay
[2] = molecular target: T1, Nitric oxide synthase, inducible; assay: Activity of iNOS assessed as increase in Kcat by indirect spectral assay relative to N'G-hydroxy-L-arginine

T1 sequence (P35228 whole entry, the tested form may be a part): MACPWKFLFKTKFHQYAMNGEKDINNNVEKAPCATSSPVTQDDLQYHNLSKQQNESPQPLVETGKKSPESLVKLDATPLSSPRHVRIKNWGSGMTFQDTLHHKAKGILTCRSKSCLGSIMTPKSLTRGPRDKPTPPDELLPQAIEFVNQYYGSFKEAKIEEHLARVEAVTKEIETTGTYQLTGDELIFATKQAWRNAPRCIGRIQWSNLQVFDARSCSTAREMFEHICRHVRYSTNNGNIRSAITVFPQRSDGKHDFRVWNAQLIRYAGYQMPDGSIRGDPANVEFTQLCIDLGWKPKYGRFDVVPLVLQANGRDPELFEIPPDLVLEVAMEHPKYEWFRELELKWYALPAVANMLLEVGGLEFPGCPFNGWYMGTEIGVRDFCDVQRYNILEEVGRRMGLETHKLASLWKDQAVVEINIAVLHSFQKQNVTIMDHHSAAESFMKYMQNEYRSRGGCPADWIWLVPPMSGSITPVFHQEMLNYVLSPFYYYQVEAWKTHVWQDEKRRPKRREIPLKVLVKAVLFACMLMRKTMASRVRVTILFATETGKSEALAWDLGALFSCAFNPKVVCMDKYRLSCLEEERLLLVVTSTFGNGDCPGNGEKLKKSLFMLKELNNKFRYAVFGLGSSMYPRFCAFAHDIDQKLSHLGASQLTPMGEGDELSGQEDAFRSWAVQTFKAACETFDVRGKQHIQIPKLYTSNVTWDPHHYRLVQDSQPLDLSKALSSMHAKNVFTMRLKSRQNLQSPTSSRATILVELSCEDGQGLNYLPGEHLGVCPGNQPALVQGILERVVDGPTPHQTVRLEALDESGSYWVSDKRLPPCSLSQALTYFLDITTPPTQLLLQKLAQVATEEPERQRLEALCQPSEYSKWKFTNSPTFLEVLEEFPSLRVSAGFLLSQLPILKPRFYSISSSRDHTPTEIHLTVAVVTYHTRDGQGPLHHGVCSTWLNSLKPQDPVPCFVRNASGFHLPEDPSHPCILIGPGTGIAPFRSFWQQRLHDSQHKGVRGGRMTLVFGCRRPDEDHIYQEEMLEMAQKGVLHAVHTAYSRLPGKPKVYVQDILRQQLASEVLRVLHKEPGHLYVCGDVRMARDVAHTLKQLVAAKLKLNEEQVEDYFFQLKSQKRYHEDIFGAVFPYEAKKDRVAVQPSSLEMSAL

N/C(=N\O)NCC(F)(F)C[C@H](N)C(=O)O
Kd [1]: 116 µM
Activity [2]: 30%

N=C(N)NCC(F)(F)C[C@H](N)C(=O)O
Kd [1]: 3100 µM
Activity [2]: 10%

N=C(NO)NCCC[C@H](N)C(=O)O
Kd [1]: 5.1 µM

Source: ChEMBL document CHEMBL1153920, “4,4-Difluorinated analogues of l-arginine and N(G)-hydroxy-l-arginine as mechanistic probes for nitric oxide synthase” (Bioorg Med Chem Lett, 2009)
